The target in assay [1] is T1, fused protein of DNA-binding domain of yeast transcription factor with ligand-binding domain of human type PPAR α (Homo sapiens, UniProt Q07869).
T1 sequence (Q07869 239-466 limits assumed): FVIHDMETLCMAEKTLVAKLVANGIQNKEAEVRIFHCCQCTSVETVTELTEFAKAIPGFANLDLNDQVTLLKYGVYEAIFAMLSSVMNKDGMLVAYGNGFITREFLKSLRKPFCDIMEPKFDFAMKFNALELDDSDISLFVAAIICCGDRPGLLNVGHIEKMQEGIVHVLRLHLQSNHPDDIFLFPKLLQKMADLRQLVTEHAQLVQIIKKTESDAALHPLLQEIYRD
In words: Test of transactivation on peroxisome proliferator-activated receptor α (CHO cells, reporter assay). On the technique in general: Reporter assays use an easily measured gene product as a stand-in for the process of interest.
Protocol: (§1) Test of transactivation on peroxisome proliferator-activated receptors α and γ
(§2) After 24 hours, CAT activity and γ-galactosidase activity were measured.

Assay [2] addresses T2, fused protein of DNA-binding domain of yeast transcription factor with ligand-binding domain of human type PPAR γ (Homo sapiens, UniProt P37231).
T2 sequence (P37231 238-503 limits assumed): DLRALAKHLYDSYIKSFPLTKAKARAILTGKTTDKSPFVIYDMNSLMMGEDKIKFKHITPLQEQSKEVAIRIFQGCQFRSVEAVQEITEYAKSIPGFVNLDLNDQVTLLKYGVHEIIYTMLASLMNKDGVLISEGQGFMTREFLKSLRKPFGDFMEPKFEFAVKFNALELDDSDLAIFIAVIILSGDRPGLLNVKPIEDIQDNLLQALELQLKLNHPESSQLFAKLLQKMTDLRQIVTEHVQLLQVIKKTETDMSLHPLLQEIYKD
In words: Test of transactivation on peroxisome proliferator-activated receptor γ (CHO cells, reporter assay).
Protocol: as §1, §2

pEC50: −log10 of the molar value. Where two headings read alike, the source gives them in different places.

For the compound `CCCCC/C=C\C/C=C\C=C\[C@@H](O)C/C=C\CCCC(=O)O` [(8S)-HETE, reference compound], the pEC50 (commonly the EC50 on a negative log10 scale, so that one unit is a factor of ten) in assay [1] (read-out: Transactivation PPARα EC50, CHO cells, cotransfected receptor and reporter plasmid, 24 hours, CAT activity) is 5.89. Consider `COc1ccc(CC2SC(=O)NC2=O)cc1C(=O)NCc1ccccn1` (stereo not drawn) [Example 1, N-[(2-Pyridyl)methyl]-5-[(2,4-dioxothiazolidin-5-yl)methyl]-2-methoxybenzamide], for which the values for the pEC50 in assay [2] and in assay [1] were 6.52 and 6.45, respectively.

Regarding `COc1ccc(CC2SC(=O)NC2=O)cc1C(=O)NCc1cccnc1` (stereo not drawn) [Example 2, N-[(3-Pyridyl)methyl]-5-[(2,4-dioxothiazolidin-5-yl)methyl]-2-methoxybenzamide], the pEC50 in assay [2] is 6.02; in assay [1], 6.38.

Take `COc1ccc(CC2SC(=O)NC2=O)cc1C(=O)NCc1ccncc1` (stereo not drawn) [Example 3, N-[(4-Pyridyl)methyl]-5-[(2,4-dioxothiazolidin-5-yl)methyl]-2-methoxybenzamide]: the pEC50 in assay [2] was 6.85; in assay [1] it was 6.63. In the same order, the values of `COc1ccc(CC2SC(=O)NC2=O)cc1C(=O)NCC1CCCCC1` (stereo not drawn) [Example 4, N-(Cyclohexylmethyl)-5-[(2,4-dioxothiazolidin-5-yl)methyl]-2-methoxybenzamide] are 6.64 and 6.52.

(Values after US6545026B1, “Substituted benzylthiazolidine-2,4-dione derivatives” (Kyorin Pharmaceutical Co., Ltd., priority 1999, dated 2003).)
